± gives the expanded uncertainty stated by the source.
Conditions: 101.33 kPa, Liquid

mass density (298.15 K) [kg/m3] | speed of sound (298.15 K) [m/s] | mass density (308.15 K) [kg/m3] | speed of sound (308.15 K) [m/s] | viscosity (308.15 K) [mPa·s] | mass density (318.15 K) [kg/m3] | viscosity (318.15 K) [mPa·s] | mass density (328.15 K) [kg/m3] | speed of sound (328.15 K) [m/s] | viscosity (328.15 K) [mPa·s] | mass density (338.15 K) [kg/m3] | speed of sound (338.15 K) [m/s] | viscosity (338.15 K) [mPa·s] | speed of sound (318.15 K) [m/s] | Compound | viscosity (298.15 K) [mPa·s]
1028.31 ± 0.68 | 1545.1 ± 13 | 1019.33 ± 0.63 | 1518.4 ± 12 | 1.365 ± 0.065 | 1010.11 ± 0.57 | 1.21 ± 0.058 | 1001.18 ± 0.51 | 1448.7 ± 12 | 1.117 ± 0.054 | 992.234 ± 0.56 | 1407.3 ± 12 | 0.986 ± 0.049 | 1477.8 ± 12 | CN1CCCC1=O [N-methylpyrrolidone] | 1.663 ± 0.078
1042.04 ± 0.77 | 1530.1 ± 6.3 | 1033.19 ± 0.71 | 1499.4 ± 6.2 | 2.942 ± 0.17 | 1024.38 ± 0.66 | 2.59 ± 0.15 | 1015.58 ± 0.6 | 1430.2 ± 6 | 2.259 ± 0.13 | 1006.77 ± 0.55 | 1403.3 ± 5.9 | 1.836 ± 0.11 | 1467.6 ± 6.1 | C=CN1CCCC1=O [N-vinylpyrrolidone] | 
 | 1498 ± 6.2 |  | 1519 ± 6.3 |  |  |  |  | 1545 ± 6.3 |  |  | 1551 ± 6.4 |  | 1535.1 ± 6.3 | O [water] | 

Compound | mass density (298.15 K) [kg/m3] | speed of sound (298.15 K) [m/s] | mass density (308.15 K) [kg/m3] | speed of sound (308.15 K) [m/s] | viscosity (308.15 K) [mPa·s] | mass density (318.15 K) [kg/m3] | viscosity (318.15 K) [mPa·s] | mass density (328.15 K) [kg/m3] | speed of sound (328.15 K) [m/s] | viscosity (328.15 K) [mPa·s] | mass density (338.15 K) [kg/m3] | speed of sound (338.15 K) [m/s] | viscosity (338.15 K) [mPa·s] | speed of sound (318.15 K) [m/s] | viscosity (298.15 K) [mPa·s]
O=C1CCCN1 [2-pyrrolidinone] | 1107.02 ± 2.4 | 1633.2 ± 6.6 | 1099.15 ± 2.3 | 1603.1 ± 6.5 | 8.844 ± 0.34 | 1091.06 ± 2.2 | 6.259 ± 0.26 | 1082.87 ± 2.1 | 1549.7 ± 6.4 | 4.677 ± 0.2 | 1070.68 ± 1.9 | 1520.1 ± 6.3 | 3.451 ± 0.15 |  | 13.36 ± 0.48

From the NIST ThermoML archive (doi:10.1021/je0340809)
